Measured values: patent publication US12018048B2, “Anthelmintic depsipeptide compounds” (BOEHRINGER INGELHEIM ANIMAL HEALTH USA INC., priority 2015, dated 2024)
≈ marks a conversion by molar mass, not a printed value. Where two headings read alike, the source gives them in different places.

Tests used:
[1] = amide bond, 24-membered ring
[2] = tested on: microfilaria of Dirofilaria immitis; test: Screening method to test activity against microfilaria of Dirofilaria immitis (survival, microtitre plate); type: cell-based; conditions: 72 h, read-out: median EC50 value
[3] = tested on: Haemonchus contortus L1 larvae; test: Screening method to test activity against Haemonchus contortus (L1 larval development, microtitre plate); conditions: 96 h; for MIC90: read-out: median MIC90 value; for EC50: read-out: median EC50 value
Description: METHOD A: Screening method to test activity of compounds against Haemonchus contortus.
Twenty L1 Haemonchus contortus larvae were added to wells of a microtitre plate containing a nutrient medium and the test compound in DMSO. An analysis was conducted at 4 days to determine the extent of development of the larvae. Larvae exposed to DMSO alone served as controls.
The EC50 and MIC90 recordings were obtained using different instruments.

CC(C)C[C@H]1C(=O)O[C@H](C)C(=O)N(C)[C@@H](CC(C)(C)F)C(=O)O[C@H](Cc2ccc(C3CCOCC3)cc2)C(=O)N(C)C2(CC2)C(=O)O[C@H](C)C(=O)N(C)[C@@H](CC(C)(C)F)C(=O)O[C@H](Cc2ccc(C3CCOCC3)cc2)C(=O)N1C gave a ring closure, yield after HPLC ([1]; from H-MeAcc(1-aminocyclopropanecarboxylic)-dLac-MeLeu(4-F)-dPhLac(4-oxan-4-yl)-MeLeu-dLac-MeLeu(4-F)-dPhLac(4-oxan-4-yl)-OH, BOP-Cl/DIEA, DCM, 0.87 mM) of 39%.
CN1C(=O)COC(=O)[C@H](CC2CC2)N(C)C(=O)[C@@H](Cc2ccc(C3CCOCC3)cc2)OC(=O)[C@H](CC(C)(C)F)N(C)C(=O)COC(=O)[C@H](CC2CC2)N(C)C(=O)[C@@H](Cc2ccc(C3CCOCC3)cc2)OC(=O)[C@@H]1CC(C)(C)F showed a ring closure, yield after HPLC ([1]; from H-MeLeu(4-F)-dPhLac(4-oxan-4-yl)-MeAla(3-cyclopropyl)-Glycolic-MeLeu(4-F)-dPhLac(4-oxan-4-yl)-MeAla(3-cyclopropyl)-Glycolic-OH, BOP-Cl/DIEA, DCM, 2.57 mM) of 33%.
Compound C[C@H]1OC(=O)[C@H](CC2CC2)N(C)C(=O)[C@@H](Cc2ccc(N3CCOCC3)cc2)OC(=O)[C@H](CC2CC2)N(C)C(=O)[C@@H](C)OC(=O)[C@H](CC2CC2)N(C)C(=O)[C@@H](Cc2ccc(N3CCOCC3)cc2)OC(=O)[C@H](CC2CC2)N(C)C1=O [Compound 6-1A, (3S,6R,9S,12R,15S,18R,21S,24R)-3,9,15,21-tetrakis(cyclopropylmethyl)-4,10,12,16,22,24-hexamethyl-6,18-bis([[4-(morpholin-4-yl)phenyl]methyl])-1,7,13,19-tetraoxa-4,10,16,22-tetraazacyclotetracosan-2,5,8,11,14,17,20,23-octone] has a ring closure, yield after HPLC ([1]; from H-MeAla(cyclopropyl)-dPhLac(4-morpholino)-MeAla(cyclopropyl)-dLac-MeAla(cyclopropyl)-dPhLac(4-morpholino)-MeAla(cyclopropyl)-dLac-OH, BOP-Cl/DIEA, DCM, 1.5 mM) of 13%, an EC50 [2] of 100 to 1000 nM and an MIC90 [3] of 1 to 10 µM (≈ 1.11 to 11.1 µg/mL).
With CC(C)C[C@H]1C(=O)O[C@H](C)C(=O)N(C)[C@@H](CC2CC2)C(=O)O[C@H](Cc2ccc(N3CCOCC3)cc2)C(=O)N(C)[C@@H](CC(C)C)C(=O)O[C@H](C)C(=O)N(C)[C@@H](CC2CC2)C(=O)O[C@H](Cc2ccc(N3CCOCC3)cc2)C(=O)N1C [Compound 6-7A, (3S,6R,9S,12R,15S,18R,21S,24R)-3,15-bis(cyclopropylmethyl)-4,6,10,16,18,22-hexamethyl-9,21-bis(2-methylpropyl)-12,24-bis([[4-(morpholin-4-yl)phenyl]methyl])-1,7,13,19-tetraoxa-4,10,16,22-tetraazacyclotetracosan-2,5,8,11,14,17,20,23-octone] the ring closure, yield after HPLC ([1]; from H-MeAla(cyclopropyl)-dPhLac(4-morpholino)-MeLeu-dLac-MeAla(cyclopropyl)-dPhLac(4-morpholino)-MeLeu-dLac-OH, BOP-Cl/DIEA, DCM, 3.2 mM) was 8%, the EC50 [2] was 100 to 1000 nM and the MIC90 [3] was 0.1 to 1 µM (≈ 0.112 to 1.12 µg/mL).
In the case of C[C@H]1OC(=O)[C@H](CC2CC2)N(C)C(=O)[C@@H](Cc2ccc(C3CCOCC3)cc2)OC(=O)[C@H](CC(C)(C)F)N(C)C(=O)[C@@H](C)OC(=O)[C@H](CC2CC2)N(C)C(=O)[C@@H](Cc2ccc(C3CCOCC3)cc2)OC(=O)[C@H](CC(C)(C)F)N(C)C1=O [Compound 7-34A, (3S,6R,9S,12R,15S,18R,21S,24R)-3,15-bis(cyclopropylmethyl)-9,21-bis(2-fluoro-2-methylpropyl)-4,-10,12,16,22,24-hexamethyl-6,18-bis([[4-(oxan-4-yl)phenyl]methyl])-1,7,13,19-tetraoxa-4,10,16,22-te-traazacyclotetracosan-2,5,8,11,14,17,20,23-octone], the ring closure, yield after HPLC ([1]; from H-MeLeu(4-F)-dPhLac(4-oxan-4-yl)-MeAla(3-cyclopropyl)-dLac-MeLeu(4-F)-dPhLac(4-oxan-4-yl)-MeAla(3-cyclopropyl)-dLac-OH, BOP-Cl/DIEA, DCM, 2.75 mM) is reported as 14%, the EC50 [2] is reported as < 100 nM and the EC50 [3] is reported as < 100 nM. The MIC90 [3] was < 0.1 µM.
For CC(C)C[C@H]1C(=O)O[C@H](C)C(=O)N(C)[C@@H](CC2CC2)C(=O)O[C@H](Cc2ccc(N3CCOCC3)nc2)C(=O)N(C)[C@@H](CC(C)C)C(=O)O[C@H](C)C(=O)N(C)[C@@H](CC2CC2)C(=O)O[C@H](Cc2ccc(N3CCOCC3)nc2)C(=O)N1C [Compound 9-7A, (3S,6R,9S,12R,15S,18R,21S,24R)-3,15-bis(cyclopropylmethyl)-4,6,10,16,18,22-hexamethyl-9,21-bis(2-methylpropyl)-12,24-bis([[6-(morpholin-4-yl)pyridin-3-yl]methyl])-1,7,13,19-tetraoxa-4,10,16,22-tetraazacyclotetracosan-2,5,8,11,14,17,20,23-octone], the ring closure, yield after HPLC ([1]; from H-MeAla(cyclopropyl)-dLac(3-[6-(morpholin-4-yl)pyridin-3-yl])-MeLeu-dLac-MeAla(cyclopropyl)-dLac(3-[6-(morpholin-4-yl)pyridin-3-yl])-MeLeu-dLac-OH?, BOP-Cl/DIEA, DCM, 4.2 mM) was 12% and the EC50 [2] was 1000 to 10000 nM.
For C[C@H]1OC(=O)C2(CC2)N(C)C(=O)[C@@H](Cc2ccc(C3CCOCC3)cc2)OC(=O)[C@H](CC(C)(C)F)N(C)C(=O)[C@@H](C)OC(=O)C2(CC2)N(C)C(=O)[C@@H](Cc2ccc(C3CCOCC3)cc2)OC(=O)[C@H](CC(C)(C)F)N(C)C1=O [Compound 969-34A, (6R,9S,12R,20R,23S,26R)-9,23-bis(2-fluoro-2-methylpropyl)-4,10,12,18,24,26-hexamethyl-6,20-bis([[4-(oxan-4-yl)phenyl]methyl])-7,13,21,27-tetraoxa-4,10,18,24-tetraazadispiro[2.11.2^[15].11^[3]]octacosan-5,8,11,14,19,22,25,28-octone], the ring closure, yield after HPLC ([1]; from H-MeAcc(1-aminocyclopropanecarboxylic)-dLac-MeLeu(4-F)-dPhLac(4-oxan-4-yl)-MeAcc(1-aminocyclopropanecarboxylic)-dLac-MeLeu(4-F)-dPhLac(4-oxan-4-yl)-OH, BOP-Cl/DIEA, DCM, 3.2 mM) was 29%, the EC50 [2] was 1000 to 10000 nM and the EC50 [3] was 1000 to 10000 nM.
“(3S,6R,9S,12R,15S,18R,21S,24R)-3,15-bis(cyclopropylmethyl)-9,21-bis(2-fluoro-2-methylpropyl)-4,10,12,16,22,24-hexamethyl-6,18-bis([[4-(morpholin-4-yl)phenyl]methyl])-1,7,13,19-tetraoxa-4,10,16,22-tetraazacyclotetracosan-2,5,8,11,14,17,20,23-octone” gave a ring closure, yield after HPLC ([1]; DIEA) of 24%.
